Measurements as given in PMC8333062, “Chemical tools for epichaperome-mediated interactome dysfunctions of the central nervous system” (Nature Communications, 2021).

Key:
[1] = molecular target: T1, 70 key receptor, enzyme, and ion channel proteins (Homo sapiens, UniProt P21731); test: General side effect profile (SEP) II diversity panel; format: binding; conditions: 1.0E-5 M
T1 construct: purchased Caliper Life Sciences (now PerkinElmer), NOVASCREEN General SEP II

[2] = molecular target: T2, 70 key receptor, enzyme, and ion channel proteins (Homo sapiens, UniProt P17252); test: as above; format: binding; conditions: 1.0E-5 M
T2 construct: purchased Caliper Life Sciences (now PerkinElmer), NOVASCREEN General SEP II

[3] = molecular target: T3, 70 key receptor, enzyme, and ion channel proteins (Homo sapiens, UniProt P07550); test: as above; format: binding; conditions: 1.0E-5 M
T3 construct: purchased Caliper Life Sciences (now PerkinElmer), NOVASCREEN General SEP II

[4] = molecular target: T4, 70 key receptor, enzyme, and ion channel proteins (Homo sapiens, UniProt P08172); test: as above; format: binding; conditions: 1.0E-5 M
T4 construct: purchased Caliper Life Sciences (now PerkinElmer), NOVASCREEN General SEP II
T4 sequence (P08172 whole entry): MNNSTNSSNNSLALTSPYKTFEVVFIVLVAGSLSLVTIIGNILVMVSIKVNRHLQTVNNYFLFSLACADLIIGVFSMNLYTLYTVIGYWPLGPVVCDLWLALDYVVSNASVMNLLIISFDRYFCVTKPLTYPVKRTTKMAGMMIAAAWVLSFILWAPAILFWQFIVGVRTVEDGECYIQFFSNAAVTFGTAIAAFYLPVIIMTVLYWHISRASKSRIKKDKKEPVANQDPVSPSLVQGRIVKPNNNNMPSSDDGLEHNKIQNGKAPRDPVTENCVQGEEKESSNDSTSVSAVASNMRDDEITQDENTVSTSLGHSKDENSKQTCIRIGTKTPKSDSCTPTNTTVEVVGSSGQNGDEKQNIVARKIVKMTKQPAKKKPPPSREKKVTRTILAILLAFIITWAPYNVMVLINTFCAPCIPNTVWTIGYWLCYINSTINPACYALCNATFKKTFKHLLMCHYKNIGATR

[5] = molecular target: T5, 70 key receptor, enzyme, and ion channel proteins (Homo sapiens, UniProt P20309); test: as above; format: binding
T5 construct: purchased Caliper Life Sciences (now PerkinElmer), NOVASCREEN General SEP II
T5 sequence (P20309 whole entry): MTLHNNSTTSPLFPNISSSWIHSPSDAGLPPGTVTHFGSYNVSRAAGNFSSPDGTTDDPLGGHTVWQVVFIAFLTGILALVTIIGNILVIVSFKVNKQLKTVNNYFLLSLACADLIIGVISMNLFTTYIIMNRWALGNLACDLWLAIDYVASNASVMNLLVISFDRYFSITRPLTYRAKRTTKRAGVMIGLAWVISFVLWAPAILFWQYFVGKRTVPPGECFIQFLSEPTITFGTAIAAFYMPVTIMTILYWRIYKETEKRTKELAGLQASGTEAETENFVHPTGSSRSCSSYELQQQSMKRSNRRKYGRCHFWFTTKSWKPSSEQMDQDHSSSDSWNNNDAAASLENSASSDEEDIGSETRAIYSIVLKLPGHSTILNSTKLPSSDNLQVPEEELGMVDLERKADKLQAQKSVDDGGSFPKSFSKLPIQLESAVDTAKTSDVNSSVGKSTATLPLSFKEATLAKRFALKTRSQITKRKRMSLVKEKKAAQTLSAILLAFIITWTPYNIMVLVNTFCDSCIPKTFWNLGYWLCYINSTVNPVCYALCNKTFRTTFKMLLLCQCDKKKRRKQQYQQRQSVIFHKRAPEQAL

[6] = molecular target: T6, 70 key receptor, enzyme, and ion channel proteins (Homo sapiens, UniProt P08173); test: as above; format: binding; conditions: 1.0E-5 M
T6 construct: purchased Caliper Life Sciences (now PerkinElmer), NOVASCREEN General SEP II

[7] = molecular target: T7, 70 key receptor, enzyme, and ion channel proteins (Homo sapiens, UniProt P21728); test: as above; format: binding; conditions: 1.0E-5 M
T7 construct: purchased Caliper Life Sciences (now PerkinElmer), NOVASCREEN General SEP II
T7 sequence (P21728 whole entry): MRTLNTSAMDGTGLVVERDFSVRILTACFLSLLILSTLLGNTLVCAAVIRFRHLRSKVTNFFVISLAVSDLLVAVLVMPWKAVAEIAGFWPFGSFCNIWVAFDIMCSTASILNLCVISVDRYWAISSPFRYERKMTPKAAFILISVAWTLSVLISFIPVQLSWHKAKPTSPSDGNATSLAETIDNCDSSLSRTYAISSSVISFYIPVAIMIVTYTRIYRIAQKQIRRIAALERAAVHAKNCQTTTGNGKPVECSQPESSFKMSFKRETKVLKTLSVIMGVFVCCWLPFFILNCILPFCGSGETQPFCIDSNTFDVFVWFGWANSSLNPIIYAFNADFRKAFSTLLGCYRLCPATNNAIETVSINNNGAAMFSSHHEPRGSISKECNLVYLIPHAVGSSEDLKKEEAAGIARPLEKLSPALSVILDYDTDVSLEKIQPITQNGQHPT

[8] = molecular target: T8, 70 key receptor, enzyme, and ion channel proteins (Homo sapiens, UniProt P17612); test: as above; format: binding; conditions: 1.0E-5 M
T8 construct: purchased Caliper Life Sciences (now PerkinElmer), NOVASCREEN General SEP II

[9] = molecular target: 70 key receptor, enzyme, and ion channel proteins (Homo sapiens, UniProt P11229); test: as above; format: binding
[10] = tested on: 70 key receptor, enzyme, and ion channel proteins; test: as above; format: binding; conditions: 1.0E-5 M
[11] = molecular target: T9, 70 key receptor, enzyme, and ion channel proteins (Homo sapiens, UniProt P25101); test: as above; format: binding; conditions: 1.0E-5 M
T9 construct: purchased Caliper Life Sciences (now PerkinElmer), NOVASCREEN General SEP II
T9 sequence (P25101 21-427): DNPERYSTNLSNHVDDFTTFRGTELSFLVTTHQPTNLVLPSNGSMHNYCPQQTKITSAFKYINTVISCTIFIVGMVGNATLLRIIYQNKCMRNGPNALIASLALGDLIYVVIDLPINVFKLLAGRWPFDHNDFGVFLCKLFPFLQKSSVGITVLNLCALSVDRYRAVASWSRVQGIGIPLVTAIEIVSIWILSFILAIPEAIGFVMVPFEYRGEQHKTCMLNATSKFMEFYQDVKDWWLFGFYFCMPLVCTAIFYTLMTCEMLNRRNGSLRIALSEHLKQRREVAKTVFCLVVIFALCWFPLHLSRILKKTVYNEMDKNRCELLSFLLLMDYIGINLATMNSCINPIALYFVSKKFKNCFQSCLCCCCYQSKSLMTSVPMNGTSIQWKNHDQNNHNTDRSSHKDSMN

[12] = molecular target: 70 key receptor, enzyme, and ion channel proteins (Homo sapiens, UniProt P35372); test: as above; format: binding
Chain of 70 key receptor, enzyme, and ion channel proteins (Homo sapiens, UniProt P35372) (P35372 whole entry): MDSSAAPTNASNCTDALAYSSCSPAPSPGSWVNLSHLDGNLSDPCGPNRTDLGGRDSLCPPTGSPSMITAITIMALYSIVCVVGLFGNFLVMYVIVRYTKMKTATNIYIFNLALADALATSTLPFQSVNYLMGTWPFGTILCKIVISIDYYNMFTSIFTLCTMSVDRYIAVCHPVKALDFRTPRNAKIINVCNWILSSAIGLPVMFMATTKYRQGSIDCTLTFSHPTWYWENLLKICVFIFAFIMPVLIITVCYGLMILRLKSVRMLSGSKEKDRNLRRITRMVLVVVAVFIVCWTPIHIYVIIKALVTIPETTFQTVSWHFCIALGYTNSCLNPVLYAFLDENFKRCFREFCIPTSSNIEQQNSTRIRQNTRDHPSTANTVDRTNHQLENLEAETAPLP

[13] = molecular target: T10, 70 key receptor, enzyme, and ion channel proteins (Homo sapiens, UniProt P49146); test: as above; format: binding; conditions: 1.0E-5 M
T10 construct: purchased Caliper Life Sciences (now PerkinElmer), NOVASCREEN General SEP II
T10 sequence (P49146 whole entry): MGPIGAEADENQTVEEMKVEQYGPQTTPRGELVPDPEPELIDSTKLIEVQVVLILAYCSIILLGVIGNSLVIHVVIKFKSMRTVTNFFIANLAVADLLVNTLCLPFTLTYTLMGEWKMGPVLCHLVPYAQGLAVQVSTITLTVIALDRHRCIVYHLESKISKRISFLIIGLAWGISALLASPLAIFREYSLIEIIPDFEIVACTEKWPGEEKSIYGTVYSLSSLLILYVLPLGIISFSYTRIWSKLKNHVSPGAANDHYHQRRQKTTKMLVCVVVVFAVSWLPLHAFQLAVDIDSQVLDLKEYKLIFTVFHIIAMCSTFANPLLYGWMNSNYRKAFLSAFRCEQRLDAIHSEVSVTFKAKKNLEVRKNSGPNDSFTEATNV

[14] = molecular target: T11, 70 key receptor, enzyme, and ion channel proteins (Homo sapiens, UniProt O76074); test: as above; format: binding; conditions: 1.0E-5 M
T11 construct: purchased Caliper Life Sciences (now PerkinElmer), NOVASCREEN General SEP II

[15] = molecular target: T12, 70 key receptor, enzyme, and ion channel proteins (Homo sapiens, UniProt Q99808); test: as above; format: binding; conditions: 1.0E-5 M
T12 construct: purchased Caliper Life Sciences (now PerkinElmer), NOVASCREEN General SEP II
T12 sequence (Q99808 whole entry): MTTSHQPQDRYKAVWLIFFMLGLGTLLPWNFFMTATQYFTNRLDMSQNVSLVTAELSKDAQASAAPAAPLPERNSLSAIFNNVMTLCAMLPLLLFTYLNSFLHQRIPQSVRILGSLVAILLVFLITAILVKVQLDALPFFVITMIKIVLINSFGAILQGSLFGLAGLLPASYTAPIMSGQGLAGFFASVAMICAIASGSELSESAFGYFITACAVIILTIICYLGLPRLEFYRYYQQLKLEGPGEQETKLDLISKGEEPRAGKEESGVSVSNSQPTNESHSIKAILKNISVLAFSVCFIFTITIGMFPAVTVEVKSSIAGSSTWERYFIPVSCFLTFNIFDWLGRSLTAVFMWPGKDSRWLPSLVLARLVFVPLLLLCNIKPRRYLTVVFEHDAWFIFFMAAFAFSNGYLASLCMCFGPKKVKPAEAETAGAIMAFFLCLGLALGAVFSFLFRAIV

[16] = molecular target: T13, 70 key receptor, enzyme, and ion channel proteins (Homo sapiens, UniProt P29274); test: as above; format: binding; conditions: 1.0E-5 M
T13 construct: purchased Caliper Life Sciences (now PerkinElmer), NOVASCREEN General SEP II
T13 sequence (P29274 whole entry): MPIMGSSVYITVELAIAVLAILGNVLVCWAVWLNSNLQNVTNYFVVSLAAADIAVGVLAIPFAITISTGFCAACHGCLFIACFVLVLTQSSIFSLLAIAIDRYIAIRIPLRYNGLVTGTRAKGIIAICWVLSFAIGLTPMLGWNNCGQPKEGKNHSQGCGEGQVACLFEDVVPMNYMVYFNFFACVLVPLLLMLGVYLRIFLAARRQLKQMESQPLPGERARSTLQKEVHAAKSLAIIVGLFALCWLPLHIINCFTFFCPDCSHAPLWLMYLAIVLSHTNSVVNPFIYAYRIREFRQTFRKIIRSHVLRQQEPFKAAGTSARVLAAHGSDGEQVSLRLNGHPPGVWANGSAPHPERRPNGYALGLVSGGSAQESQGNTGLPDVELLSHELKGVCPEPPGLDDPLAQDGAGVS

[17] = molecular target: 70 key receptor, enzyme, and ion channel proteins (Homo sapiens, UniProt P41143); test: as above; format: binding
Chain of 70 key receptor, enzyme, and ion channel proteins (Homo sapiens, UniProt P41143) (P41143 whole entry): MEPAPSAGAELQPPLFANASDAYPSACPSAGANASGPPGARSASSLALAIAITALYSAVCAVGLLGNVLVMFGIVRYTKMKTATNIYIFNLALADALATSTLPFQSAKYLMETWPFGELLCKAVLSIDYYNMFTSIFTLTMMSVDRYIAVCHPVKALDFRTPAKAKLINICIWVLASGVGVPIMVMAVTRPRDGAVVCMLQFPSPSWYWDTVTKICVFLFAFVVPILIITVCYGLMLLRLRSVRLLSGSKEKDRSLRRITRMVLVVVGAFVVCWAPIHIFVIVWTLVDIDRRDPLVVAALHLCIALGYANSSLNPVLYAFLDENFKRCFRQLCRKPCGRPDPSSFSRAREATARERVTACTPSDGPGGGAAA

[18] = molecular target: T14, 70 key receptor, enzyme, and ion channel proteins (Homo sapiens, UniProt P34969); test: as above; format: binding; conditions: 1.0E-5 M
T14 construct: purchased Caliper Life Sciences (now PerkinElmer), NOVASCREEN General SEP II
T14 sequence (P34969 whole entry): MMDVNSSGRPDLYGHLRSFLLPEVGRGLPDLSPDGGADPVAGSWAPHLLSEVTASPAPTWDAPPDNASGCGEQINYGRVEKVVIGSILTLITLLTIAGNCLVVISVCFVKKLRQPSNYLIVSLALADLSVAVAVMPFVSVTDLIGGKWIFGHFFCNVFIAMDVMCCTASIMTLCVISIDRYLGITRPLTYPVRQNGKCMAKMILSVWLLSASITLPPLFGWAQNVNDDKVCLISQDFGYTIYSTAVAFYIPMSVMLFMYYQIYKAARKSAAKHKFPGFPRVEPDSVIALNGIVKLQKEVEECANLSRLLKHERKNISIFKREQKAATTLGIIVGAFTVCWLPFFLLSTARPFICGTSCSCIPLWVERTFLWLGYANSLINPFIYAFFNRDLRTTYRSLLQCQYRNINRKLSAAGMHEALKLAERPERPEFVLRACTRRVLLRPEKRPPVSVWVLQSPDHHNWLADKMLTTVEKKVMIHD

[19] = molecular target: T15, muscarinic receptor M5 (printed "MS") (Homo sapiens, UniProt P08912); test: as above; format: binding; conditions: human; 1.0E-5 M; read-out: Percent Inhibition: Muscarinic, MS (h)
T15 construct: purchased Caliper Life Sciences (now PerkinElmer), NOVASCREEN General SEP II

[20] = molecular target: T16, 70 key receptor, enzyme, and ion channel proteins (Homo sapiens, UniProt P21917); test: as above; format: binding; conditions: 1.0E-5 M
T16 construct: purchased Caliper Life Sciences (now PerkinElmer), NOVASCREEN General SEP II

[21] = molecular target: T17, 70 key receptor, enzyme, and ion channel proteins (Homo sapiens, UniProt P47898); test: as above; format: binding; conditions: 1.0E-5 M
T17 construct: purchased Caliper Life Sciences (now PerkinElmer), NOVASCREEN General SEP II

[22] = molecular target: T18, 70 key receptor, enzyme, and ion channel proteins (Homo sapiens, UniProt P50406); test: as above; format: binding; conditions: 1.0E-5 M
T18 construct: purchased Caliper Life Sciences (now PerkinElmer), NOVASCREEN General SEP II

[23] = molecular target: T19, 70 key receptor, enzyme, and ion channel proteins (Homo sapiens, UniProt P08908); test: as above; format: binding
T19 construct: purchased Caliper Life Sciences (now PerkinElmer), NOVASCREEN General SEP II

T1 sequence (P21731 whole entry): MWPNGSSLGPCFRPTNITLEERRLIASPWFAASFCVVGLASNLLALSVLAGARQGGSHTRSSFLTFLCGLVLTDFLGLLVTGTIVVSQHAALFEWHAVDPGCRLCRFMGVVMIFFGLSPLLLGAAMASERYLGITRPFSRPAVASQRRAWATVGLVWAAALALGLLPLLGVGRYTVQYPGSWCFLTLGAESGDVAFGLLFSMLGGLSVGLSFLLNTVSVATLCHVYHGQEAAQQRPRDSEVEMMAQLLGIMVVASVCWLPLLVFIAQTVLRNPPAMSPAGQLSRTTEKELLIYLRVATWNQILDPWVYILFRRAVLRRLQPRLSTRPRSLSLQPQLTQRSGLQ

## CC(C)(C)CNCCn1c(Sc2cc3c(cc2I)OCO3)nc2c(N)ncnc21 [Compound 85]
[1]
  Percent Inhibition: Thromboxane AZ (h): 20.84%
[2]
  Percent Inhibition: Kinase, Protein, PKCa (h): 11.20%
[3]
  Percent Inhibition: Adrenergic, Beta 2 (h): 3.05%
[4]
  Percent Inhibition: Muscarinic, M2 (h): 45.44%
[5]
  Percent Inhibition: Muscarinic, M3 (h): 50.76%
[6]
  Percent Inhibition: Muscarinic, M4 (h): 27.60%
[7]
  Percent Inhibition: Dopamine, Dl (h): 8.03%
[8]
  Percent Inhibition: Kinase, Protein, PKA (h): 0.09%
[9]
  Percent Inhibition: Muscarinic, Ml (hr): 26.84%
[10]
  Percent Inhibition: Adenosine, Al: 14.00%
  Percent Inhibition: Adrenergic, Alpha 1B: 27.43%
  Percent Inhibition: Adrenergic, Alpha 2A (h): -1.92%
  Percent Inhibition: Adrenergic, Alpha 2B: 10.67%
  Percent Inhibition: Adrenergic, Alpha 2C (h): 15.07%
  Percent Inhibition: Adrenergic, Alpha lA: 12.17%
  Percent Inhibition: Angiotensin II, ATl (h): 0.36%
  Percent Inhibition: Bradykinin, BK2: 10.14%
  Percent Inhibition: Calcium Channel, Type N: -11.15%
  Percent Inhibition: Dopamine Transporter: -12.87%
  Percent Inhibition: Dopamine, D2s (h): 20.57%
  Percent Inhibition: Dopamine, D3: -6.23%
  Percent Inhibition: Esterase, Acetylcholine: 6.63%
  Percent Inhibition: GABA A, Agonist Site: 33.91%
  Percent Inhibition: GABA A, BDZ, alpha 1 site: 18.61%
  Percent Inhibition: GABA, Chloride, TBOB Site: -28.46%
  Percent Inhibition: GABA-B: 18.61%
  Percent Inhibition: Glutamate, AMPA Site (Ionotropic): 8.62%
  Percent Inhibition: Glutamate, Kainate Site (Ionotropic): -7.63%
  Percent Inhibition: Glutamate, MK-801 Site (Ionotropic): -0.50%
  Percent Inhibition: Glutamate, NMDA Agonist Site (Ionotropic): 23.69%
  Percent Inhibition: Glutamate, NMDA, Phencyclidine Site (Ionotropic): 6.26%
  Percent Inhibition: Glutamate,NMDA,Glycine (Stry-insens Site): -0.97%
  Percent Inhibition: Glycine, Strychnine-sensitive: -19.46%
  Percent Inhibition: Histamine, H2: 40.98%
  Percent Inhibition: Histamine, H3: 22.25%
  Percent Inhibition: Histamine, Hl: 5.94%
  Percent Inhibition: Leukotriene, LTB4 (BLT): 22.06%
  Percent Inhibition: Leukotriene, LTD4 (CysLTl): 28.77%
  Percent Inhibition: Neurokinin, NKl: 20.40%
  Percent Inhibition: Nicotinic, Neuronal (a-BnTx insensitive): -17.51%
  Percent Inhibition: Nitric Oxide, NOS (Neuronal-Binding): -1.73%
  Percent Inhibition: Norepinephrine Transporter: 5.73%
  Percent Inhibition: Phosphodiesterase, PDE4A1A (h): 14.00%
  Percent Inhibition: Potassium Channel, ATP-Sensitive: -1.01%
  Percent Inhibition: Potassium Channel, Ca2+ Act., VI: 18.66%
  Percent Inhibition: Serotonin Transporter: 5.96%
  Percent Inhibition: Serotonin, 5HT1D: 5.13%
  Percent Inhibition: Serotonin, 5HT2A: 8.50%
  Percent Inhibition: Serotonin, 5HT2C: 12.77%
  Percent Inhibition: Serotonin, 5HT3: 6.61%
  Percent Inhibition: Serotonin, 5HT4: 36.08%
  Percent Inhibition: Sigma 2: -0.71%
  Percent Inhibition: Sodium, Site 2: 14.53%
[11]
  Percent Inhibition: Endothelin, ET-A (h): 13.54%
[12]
  Percent Inhibition: Opioid, Mu (h): 56.70%
[13]
  Percent Inhibition: Neuropeptide, NPY2 (h): 28.79%
[14]
  Percent Inhibition: Phosphodiesterase, PDE5Al (h): -35.00%
[15]
  Percent Inhibition: Adenosine Transporter (h): -3.54%
[16]
  Percent Inhibition: Adenosine, A2A (h): 0.79%
[17]
  Percent Inhibition: Opioid, Delta 2 (h): 20.37%
[18]
  Percent Inhibition: Serotonin, 5HT7 (h): 14.36%
[19]
  inhibition at 10 µM: 69.9%
[20]
  Percent Inhibition: Dopamine, D4. 4 (h): 10.85%
[21]
  Percent Inhibition: Serotonin, 5HT5A (h): 11.09%
[22]
  Percent Inhibition: Serotonin, 5HT6 (h): 17.73%
[23]
  Percent Inhibition: Serotonin, 5HT1A (h): -16.30%
PAMPA-BBB permeability; Supplementary Table 6
  PAMPA_BBB: 15.4±2.6
PAMPA-BBB permeability; pig, PAMPA, pH 7.4
  Papp at 16 h, 50 μM: 15.4 ± 1.3 ×10⁻⁶ cm/s
